This is an account of results in US20250206745A1, “PYRROLOPYRIDAZINE DERIVATIVES AND RELATED USES” (NodThera Limited, priority 2023, published 2025).

The test system of experiment [1] is IL-1β release upon NLRP3 activation in phorbol 12-myristate 13-acetate (PMA)-differentiated THP-1 cells. Briefly: THP-1 IC50 Determination Assay. It counts as cell-based. The following applies: Homo sapiens, inhibition of IL-1β release, LPS, nigericin, ELISA. The protocol:
The compounds of the present disclosure were tested for their inhibitory activity against IL-1β release upon NLRP3 activation in phorbol 12-myristate 13-acetate (PMA)-differentiated THP-1 cells.
THP-1 cells stored in liquid nitrogen were thawed in a 37° C. water bath. The cells were added into complete RPMI 1640 medium (FBS (56 mL), 100× Penicillin-Streptomycin (5.6 mL) and 0.05 mM 2-Mercaptoethanol in RPMI 1640 Medium (500 mL)) and centrifuged for 5 min at 1000 rpm. The supernatant was discarded and the cells resuspended into new cell culture medium for culturing. Cells were cultured in cell culture medium and passaged every 3-4 days to maintain cell density between 4×10^5 and 1.5×10^6 cells/mL. The cells were diluted to 0.8×10^6 cells/mL and grown in a T150 flask with PMA (final concentration 5 ng/mL). The flask was incubated in a 37° C. incubator with a humidified atmosphere of 5% CO2 for −40 hours. After −40 hours of PMA differentiation, the flask was washed with DPBS. Cells were digested with Trypsin LE for about 5 min at room temperature, and digestion was terminated using complete RPMI 1640 medium. Cells were centrifuged and resuspended (1000 rpm, 3 min). The supernatant was discarded and cells washed with DPBS, centrifuged and resuspended cells (1000 rpm, 5 min). Cells were plated at 30,000 cells/well in a 384-well PP plate and treated with 25 ng/mL LPS solution diluted in serum-free medium (45 μL). The plate was incubated in a 37° C. incubator with a humidified atmosphere of 5% CO2 for 2 hours. Compounds (from 10 mM DMSO solution) were dispensed and serially diluted by 1:3 eight times, with final 0.5% DMSO concentration. NLRP3 inflammasome was activated with nigericin (5 μL), the plate was centrifuged (1000 rpm, 30 s) and incubated in a 37° C. incubator with a humidified atmosphere of […] for 2 hours. 35 μL/well of supernatant was removed and IL-1β levels determined by ELISA assay (Mabtech 3416-1H-20) according to the manufacturer's instructions.
In general terms: An ELISA detects its analyte on a solid surface through an enzyme-linked reagent.

The subject of experiment [2] is IL-1β release upon NLRP3 activation in peripheral blood mononuclear cells (PBMC). Briefly: PBMC IC50 Determination Assay. The experiment is classed as cell-based. The following applies: Homo sapiens; inhibition of IL-1β release; PBMC primed with LPS, stimulated with ATP or nigericin; ELISA or HTRF. Here is the method:
The compounds of the present disclosure were tested for their inhibitory activity against IL-1β release upon NLRP3 activation in peripheral blood mononuclear cells (PBMC).
Protocol A. PBMC were isolated from buffy coats by density gradient centrifugation on Histopaque-1077 (Sigma, cat no. 10771). Isolated cells were seeded into the wells of a 96-well plate and incubated for 3 h with lipopolysaccharide (LPS). Following medium exchange, the compounds of the present disclosure were added (a single compound per well) and the cells were incubated for 30 min. Next, the cells were stimulated either with ATP (5 mM) or nigericin (10 μM) for 1 h and the cell culture media from the wells were collected for further analysis.
The release of IL-1β into the media was determined by a quantitative detection of IL-1β in the media using an IL-1β enzyme-linked immunosorbent assay (ELISA) Ready-SET-Go!, eBioscience cat. No. 88-7261-88. Briefly, in a first step, high affinity binding plates (Corning, Costar 9018 or NUNC Maxisorp Cat No. 44-2404) were coated overnight at 4° C. with specific capture antibody included in the kit (anti-human IL-1β ref. 14-7018-68). Subsequently, plates were blocked with blocking buffer for 1 h at room temperature (rt) and after washing with a buffer (PBS with 0.05% Tween-20) incubated with protein standard and culture media. After 2 h of incubation at rt, plates were washed and incubated with biotinylated detection antibody included in the kit (anti-human IL-1β Biotin ref. 33-7110-68) for 1 h at rt. Plates were washed and incubated with HRP-streptavidin for 30 min at rt and washed again. The signal was developed after addition of 3,3′,5,5′-tetramethylbenzidine-peroxidase (TMB) until colour appeared and the reaction was stopped by 2 M H2SO4. A microplate spectrophotometer (BioTek) was used to detect signals with 450 nm. The detection range of IL-1β ELISA was […].
Protocol B. PBMC were isolated from buffy coats by density gradient centrifugation on Histopaque-1077 (Sigma, cat no. 10771). Isolated cells were seeded into the wells (280,000 cells/well) of a 96-well plate and incubated for 3 h with lipopolysaccharide (LPS, 1 μg/mL diluted 1000× from a 1 mg/mL stock solution). The compounds of the present disclosure were added (a single compound per well) and the cells were incubated for 30 min. Next, the cells were stimulated with ATP (5 mM final concentration diluted 20× from a 100 mM stock solution) for 1 h and the cell culture media from the wells were collected for further analysis.
The release of IL-1β into the media was determined by quantitative detection of IL-1β in the media using HTRF®, CisBio cat. No. 62HIL1BPEH. Briefly, cell culture supernatant were dispensed directly into the assay plate containing antibodies labelled with the HTRF® donor and acceptor. A microplate spectrophotometer (BMG) was used to detect signals at 655 nm and 620 nm. The detection range of IL-1β HTRF® was 39-6500 pg/mL.

Each structure is given as a SMILES string. Structures can show the parent of a compound that is named as a salt.

Broadly, the IC50 is the concentration that inhibits the measured activity by half. A low value points to higher potency.

For the compound `Cc1cc(Cl)cc(O)c1-c1cc2ccn(C[C@@H]3CCN(C)C[C@H]3F)c2nn1` (relative stereo) [Compound 51, Trans-5-chloro-2-{7-[(3-fluoro-1-methylpiperidin-4-yl)methyl]-7H-pyrrolo[2,3-c]pyridazin-3-yl}-3-methylphenol hydrochloride], the IC50 in experiment [1] lay within 1000 to 3000 nM; in experiment [2], 100 to 300 nM.

As for `Cc1cc(Cl)cc(O)c1-c1cc2ccn(CC3CCN(C=O)CC3)c2nn1` [Compound 63, 4-{[3-(4-Chloro-2-hydroxy-6-methylphenyl)-7H-pyrrolo[2,3-c]pyridazin-7-yl]methyl}piperidine-1-carbaldehyde], the IC50 in experiment [1] was 30 to 100 nM; in experiment [2] it was less than 30 nM.

On to `Cc1cc(Cl)cc(O)c1-c1cc2ccn(CC(=O)N(C)C)c2nn1` [Compound 32, 2-[3-(4-Chloro-2-hydroxy-6-methylphenyl)-7H-pyrrolo[2,3-c]pyridazin-7-yl]-N,N-dimethylacetamide], for which the IC50 in experiment [1] and in experiment [2] was 100 to 300 nM in each case.

Consider `COC(=O)N1CCC(Cn2ccc3cc(-c4c(C)cc(Cl)cc4O)nnc32)CC1` [Compound 17, Methyl 4-{[3-(4-chloro-2-hydroxy-6-methylphenyl)-7H-pyrrolo[2,3-c]pyridazin-7-yl]methyl}piperidine-1-carboxylate], for which the IC50 in experiment [1] and in experiment [2] was 100 to 300 nM throughout.

Turning to `Cc1cc(Cl)cc(O)c1-c1cc2ccn(CC3CCN(C)C4(CC4)C3)c2nn1` (stereo not shown) [Compound 49, 5-Chloro-3-methyl-2-[7-({4-methyl-4-azaspiro[2.5]octan-7-yl}methyl)-7H-pyrrolo[2,3-c]pyridazin-3-yl]phenol hydrochloride], the IC50 in experiment [1] is 300 to 1000 nM; in experiment [2], 100 to 300 nM.

`Cc1cc(Cl)cc(O)c1-c1cc2ccn(CC3(C#N)CCN(C)CC3)c2nn1` [Compound 55, 4-{[3-(4-Chloro-2-hydroxy-6-methylphenyl)-7H-pyrrolo[2,3-c]pyridazin-7-yl]methyl}-1-methylpiperidine-4-carbonitrile]: the IC50 in experiment [1] and in experiment [2] was 30 to 100 nM each time.

Turning to `Cc1cc(Cl)cc(O)c1-c1cc2ccn(CC(=O)N3CCCC3)c2nn1` [Compound 30, 2-[3-(4-Chloro-2-hydroxy-6-methylphenyl)-7H-pyrrolo[2,3-c]pyridazin-7-yl]-1-(pyrrolidin-1-yl)ethan-1-one], the IC50 in experiment [1] and in experiment [2] was 300 to 1000 nM throughout.

Consider `Cc1cc(C(F)(F)F)cc(O)c1-c1cc2ccn(CC3CCCO3)c2nn1` (stereo not shown) [Compound 2, 3-Methyl-2-{7-[(oxolan-2-yl)methyl]-7H-pyrrolo[2,3-c]pyridazin-3-yl}-5-(trifluoromethyl)phenol], for which the values for the IC50 in experiment [1] and in experiment [2] were 100 to 300 nM and 300 to 1000 nM, respectively.

As to `Cc1cc(Cl)cc(O)c1-c1cc2ccn(CCN3CCCC3=O)c2nn1` [Compound 40, 1-{2-[3-(4-Chloro-2-hydroxy-6-methylphenyl)-7H-pyrrolo[2,3-c]pyridazin-7-yl]ethyl}pyrrolidin-2-one], the IC50 in experiment [1] and in experiment [2] was 1000 to 3000 nM each time.

On to `Cc1cc(Cl)cc(O)c1-c1cc2ccn(CC3(F)CCN(C)CC3)c2nn1` [Compound 27, 5-Chloro-2-{7-[(4-fluoro-1-methylpiperidin-4-yl)methyl]-7H-pyrrolo[2,3-c]pyridazin-3-yl}-3-methylphenol hydrochloride], for which the IC50 in experiment [1] was 100 to 300 nM; in experiment [2], 30 to 100 nM.

In the case of `COCCn1ccc2cc(-c3c(C)cc(Cl)cc3O)nnc21` [Compound 21, 5-Chloro-2-[7-(2-methoxyethyl)-7H-pyrrolo[2,3-c]pyridazin-3-yl]-3-methylphenol], the IC50 in experiment [1] lay in the range of 300 to 1000 nM; in experiment [2] it was 100 to 300 nM.

On to `Cc1cc(C#N)cc(O)c1-c1cc2ncn(CC3CCN(C)CC3)c2nn1` [Compound 73, 3-Hydroxy-5-methyl-4-{7-[(1-methylpiperidin-4-yl)methyl]-7H-imidazo[4,5-c]pyridazin-3-yl}benzonitrile], for which the figures for the concentration for half-maximal inhibition (IC50) in experiment [1] and in experiment [2] were 300 to 1000 nM and 100 to 300 nM, respectively.

As for `Cc1cc(Cl)cc(O)c1-c1cc2ccn(CC3CCOCC3)c2nn1` [Compound 37, 5-Chloro-3-methyl-2-{7-[(oxan-4-yl)methyl]-7H-pyrrolo[2,3-c]pyridazin-3-yl}phenol], the figures for the IC50 in experiment [1] and in experiment [2] were 300 to 1000 nM and 100 to 300 nM, respectively.

For `Cc1cc(Cl)cc(O)c1-c1cc2ccn(CCCN(C)C)c2nn1` [Compound 29, 5-Chloro-2-{7-[3-(dimethylamino)propyl]-7H-pyrrolo[2,3-c]pyridazin-3-yl}-3-methylphenol hydrochloride], the 50% inhibitory concentration (IC50) in experiment [1] and in experiment [2] was 1000 to 3000 nM in each case.

Regarding `Cc1cc(Cl)cc(O)c1-c1cc2ncn(CC3CCN(C)CC3)c2nn1` [Compound 71, 5-Chloro-3-methyl-2-{7-[(1-methylpiperidin-4-yl)methyl]-7H-imidazo[4,5-c]pyridazin-3-yl}phenol], the IC50 in experiment [1] was 30 to 100 nM; in experiment [2], less than 30 nM.

In the case of `Cc1cc(Cl)cc(O)c1-c1cc2ccn(C(=O)N3CCN(C)CC3)c2nn1` [Compound 50, 5-Chloro-3-methyl-2-[7-(4-methylpiperazine-1-carbonyl)-7H-pyrrolo[2,3-c]pyridazin-3-yl]phenol hydrochloride], the IC50 in experiment [1] was 300 to 1000 nM; in experiment [2], 3000 to 10000 nM.

As to `CC(=O)N1CCC(Cn2ccc3cc(-c4c(C)cc(Cl)cc4O)nnc32)CC1` [Compound 9, 1-(4-{[3-(4-Chloro-2-hydroxy-6-methylphenyl)-7H-pyrrolo[2,3-c]pyridazin-7-yl]methyl}piperidin-1-yl)ethan-1-one], the IC50 in experiment [1] and in experiment [2] was 30 to 100 nM each time.

For the compound `Cc1cc(Cl)cc(O)c1-c1cc2ccn(CCN(C)C)c2nn1` [Compound 22, 5-Chloro-2-{7-[2-(dimethylamino)ethyl]-7H-pyrrolo[2,3-c]pyridazin-3-yl}-3-methylphenol hydrochloride], the IC50 in experiment [1] and in experiment [2] was 300 to 1000 nM in each case.

Consider `Cc1cc(Cl)cc(O)c1-c1cc2ccn(CC3CCN(C)C(=O)C3)c2nn1` (stereo not shown) [Compound 11, 4-{[3-(4-Chloro-2-hydroxy-6-methylphenyl)-7H-pyrrolo[2,3-c]pyridazin-7-yl]methyl}-1-methylpiperidin-2-one], for which the IC50 in experiment [1] and in experiment [2] was 100 to 300 nM in each case.

On to `Cc1cc(Cl)cc(O)c1-c1cc2ccn(CC3CCN(S(C)(=O)=O)CC3)c2nn1` [Compound 31, 5-Chloro-2-{7-[(1-methanesulfonylpiperidin-4-yl)methyl]-7H-pyrrolo[2,3-c]pyridazin-3-yl}-3-methylphenol], for which the IC50 in experiment [1] and in experiment [2] was 100 to 300 nM throughout.
